Drawing on patent publication US20150031714A1, “METHODS AND COMPOSITIONS FOR PREVENTION OF ALLERGIC REACTION” (Baylor College of Medicine, priority 2013, published 2015), this text covers IC50 for two molecules.

The assay relates to MEF/GFP-Stat3α cells. In words: High-throughput fluorescence microscopy (HTFM) cytoplasmic-to-nuclear translocation of GFP-Stat3α. The format is cell-based, murine. The following applies: Mus musculus, 0.5 h; Table 4; MEF/GFP-Stat3α, IL-6 200 ng/ml and IL-6sR 250 ng/ml 30 min; read-out: HTM IC50. The method, then:
Coverslips were examined by confocal fluorescent microscopy using filters to detect GFP (column one), DAPI (column two) or both (merge; column three). In panel B, MEF-GFP-Stat3 cells were grown in 96-well plates with optical glass bottoms and pretreated with the indicated compound at the indicated concentrations in quadruplicate for 1 hour then stimulated with IL-6 (200 ng/ml) and IL-6sR (250 ng/ml) for 30 minutes. Cells were fixed and the plates were examined by high-throughput microscopy to determine the fluorescence intensity in the nucleus (FLIN) and the % ΔFLINMax was calculated as described in Example 1. Data shown are mean±SD and are representative of 2 or more studies. Best-fit curves were generated based on 4 Parameter Logistic Model/Dose Response One Site/XLfit 4.2, IDBS and were used to calculate IC50 (Table 1).
Confocal and high-throughput fluorescence microscopy. Confocal and highthroughput fluorescence microscopy (HTFM) of MEF/GFP-Stat3α cells were performed as described (Huang et al., 2007). Briefly, for confocal fluorescence microscopy, cells were grown in 6-well plates containing a cover slip. For HTFM, cells were seeded into 96-well CC3 plates at a density of 5,000 cells/well using an automated plating system. Cells were cultured under standard conditions until 85-90% confluent. Cells were pretreated with compound for 1 hour at 37° C. then stimulated with IL-6 (200 ng/ml) and IL-6sR (250 ng/ml) for 30 minutes. […] Plates were analyzed by automated HTFM using the Cell Lab IC Image Cytometer (IC100) platform and CytoshopVersion 2.1 analysis software (Beckman Coulter). Nuclear translocation is quantified by using the fraction localized in the nucleus (FLIN) measurement (Sharp et al., 2006). […]
EXP IIB. High throughput fluorescence microscopy (HTFM), cytoplasm-to-nucleus translocation inhibition assays. […] Plates are analyzed by automated HTFM using the Cell Lab IC Image Cytometer (IC100) platform and CytoshopVersion 2.1 analysis software (Beckman Coulter). […]

Usually IC50 stands for the concentration needed to halve the response being measured. Take `O=C(O)c1ccc(C=CC(=O)c2ccc3c(c2)OCCO3)cc1` [Cpd3, 4-[3-(2,3-dihydro-1,4-benzodioxin-6-yl)-3-oxo-1-propen-1-yl]benzoic acid]: the IC50 turned out to be 131 µM. `CCOc1cc(C=C2C(=O)c3ccccc3C2=O)cc(Cl)c1OCc1cccc(C(=O)O)c1` [Cpd3-2, 3-({2-chloro-4-[(1,3-dioxo-1,3-dihydro-2H-inden-2-ylidene)methyl]-6-ethoxyphenoxy}methyl)benzoic acid]: the half-maximal inhibitory concentration (IC50) stood at 150 µM.
